Results from publication PMC5218480 (PLoS ONE, 2017).

Tested on: MV-4-11 cells
Experiment: Gene expression microarray analysis (Affymetrix PrimeView) and GSEA
Type: cell-based, human
Design: RFU PODN (11730768_x_at) / Fold change /veh PODN (11730768_x_at) / RFU LINC00158 (11744669_a_at) / Fold change /veh LINC00158 (11744669_a_at) / RFU DUSP10 (11751237_a_at) / Fold change /veh DUSP10 (11751237_a_at) / RFU ID3 (11757404_x_at) / Fold change /veh ID3 (11757404_x_at) / RFU PLEKHG5 (11737974_s_at) / Fold change /veh PLEKHG5 (11737974_s_at) / RFU LRRC4B (11730491_at) / Fold change /veh LRRC4B (11730491_at) / RFU GIMAP4 (11747438_a_at) / Fold change /veh GIMAP4 (11747438_a_at) / RFU KRT8 (11758183_x_at) / Fold change /veh KRT8 (11758183_x_at) / RFU CNN1 (11734310_a_at) / Fold change /veh CNN1 (11734310_a_at) / RFU VPS37D (11726825_at) / Fold change /veh VPS37D (11726825_at) / RFU C10orf10 (11716522_x_at) / Fold change /veh C10orf10 (11716522_x_at) / RFU KIR2DL2 /// KIR2DL4 /// KIR2DL5A /// KIR2DL5B /// KIR2DS1 /// KIR2DS2 /// KIR2DS3 /// KIR2DS4 /// KIR3DL3 /// KIR3DL3 /// KIR3DS1 (11738374_at) / Fold change /veh KIR2DL2 /// KIR2DL4 /// KIR2DL5A /// KIR2DL5B /// KIR2DS1 /// KIR2DS2 /// KIR2DS3 /// KIR2DS4 /// KIR3DL3 /// KIR3DL3 /// KIR3DS1 (11738374_at) / RFU C1QL1 (11718748_at) / Fold change /veh C1QL1 (11718748_at) / RFU TMPRSS4 (11747572_a_at) / Fold change /veh TMPRSS4 (11747572_a_at) / RFU HAMP (11756126_x_at) / Fold change /veh HAMP (11756126_x_at) / RFU RNFT2 (11725882_a_at) / Fold change /veh RNFT2 (11725882_a_at) / RFU NR4A2 (11747474_a_at) / Fold change /veh NR4A2 (11747474_a_at) / RFU ABCC12 (11746883_a_at) / Fold change /veh ABCC12 (11746883_a_at) / RFU TMEM136 (11760407_x_at) / Fold change /veh TMEM136 (11760407_x_at) / RFU CLDN22 /// WWC2 (11732394_at) / Fold change /veh CLDN22 /// WWC2 (11732394_at) / RFU HLA-DPB1 (11760878_x_at) / Fold change /veh HLA-DPB1 (11760878_x_at) / RFU SPINT1 (11716480_a_at) / Fold change /veh SPINT1 (11716480_a_at) / RFU GAP43 (11754022_s_at) / Fold change /veh GAP43 (11754022_s_at) / RFU A4GNT (11735810_at) / Fold change /veh A4GNT (11735810_at) / RFU PRB3 (11715151_x_at) / Fold change /veh PRB3 (11715151_x_at) / RFU TUBB4B (11761932_at) / Fold change /veh TUBB4B (11761932_at) / RFU CAPN14 (11732068_a_at) / Fold change /veh CAPN14 (11732068_a_at) / RFU TMCC2 (11721928_a_at) / Fold change /veh TMCC2 (11721928_a_at) / RFU IRGQ (11745062_a_at) / Fold change /veh IRGQ (11745062_a_at) / RFU FAM174B (11720279_a_at) / Fold change /veh FAM174B (11720279_a_at) / RFU TMPRSS4 (11748680_a_at) / Fold change /veh TMPRSS4 (11748680_a_at) / RFU FAM212B (11763350_a_at) / Fold change /veh FAM212B (11763350_a_at) / RFU PLEKHG5 (11743358_a_at) / Fold change /veh PLEKHG5 (11743358_a_at) / RFU ZSCAN30 (11745921_a_at) / Fold change /veh ZSCAN30 (11745921_a_at) / RFU CMKLR1 (11741424_a_at) / Fold change /veh CMKLR1 (11741424_a_at) / RFU LOC101060620 /// MAPK8IP1 (11723275_at) / Fold change /veh LOC101060620 /// MAPK8IP1 (11723275_at) / RFU SPTSSB (11747773_x_at) / Fold change /veh SPTSSB (11747773_x_at) / RFU PRSS12 (11739890_at) / Fold change /veh PRSS12 (11739890_at) / RFU BIN1 (11741810_x_at) / Fold change /veh BIN1 (11741810_x_at) / RFU WNT11 (11732464_a_at) / Fold change /veh WNT11 (11732464_a_at) / RFU C10orf10 (11716521_a_at) / Fold change /veh C10orf10 (11716521_a_at) / RFU C5orf56 (11738089_at) / Fold change /veh C5orf56 (11738089_at) / RFU CYB561 (11721691_x_at) / Fold change /veh CYB561 (11721691_x_at) / RFU ANKRD19P (11752326_a_at) / Fold change /veh ANKRD19P (11752326_a_at) / RFU OR2T12 /// OR2T33 /// OR2T8 (11738714_s_at) / Fold change /veh OR2T12 /// OR2T33 /// OR2T8 (11738714_s_at) / RFU VCAN (11748164_a_at) / Fold change /veh VCAN (11748164_a_at) / RFU JSRP1 (11732532_at) / Fold change /veh JSRP1 (11732532_at) / RFU KRTAP10-11 (11738290_x_at) / Fold change /veh KRTAP10-11 (11738290_x_at) / RFU MYO3A (11730013_a_at) / Fold change /veh MYO3A (11730013_a_at) / RFU EBF3 (11725865_a_at) / Fold change /veh EBF3 (11725865_a_at) / RFU CAMK2N1 (11719241_x_at) / Fold change /veh CAMK2N1 (11719241_x_at) / RFU C5orf56 (11738088_a_at) / Fold change /veh C5orf56 (11738088_a_at) / RFU OLFML3 (11715873_a_at) / Fold change /veh OLFML3 (11715873_a_at) / RFU LOC100653217 /// NTM (11731650_a_at) / Fold change /veh LOC100653217 /// NTM (11731650_a_at) / RFU MAPK11 (11762145_a_at) / Fold change /veh MAPK11 (11762145_a_at) / RFU FIZ1 (11724087_x_at) / Fold change /veh FIZ1 (11724087_x_at) / RFU OASL (11726364_x_at) / Fold change /veh OASL (11726364_x_at) / RFU SOX15 (11748057_x_at) / Fold change /veh SOX15 (11748057_x_at) / RFU CD79A (11719716_a_at) / Fold change /veh CD79A (11719716_a_at) / RFU HIST1H1D (11736915_at) / Fold change /veh HIST1H1D (11736915_at) / RFU CASKIN2 (11723855_a_at) / Fold change /veh CASKIN2 (11723855_a_at) / RFU LOC730098 (11760151_x_at) / Fold change /veh LOC730098 (11760151_x_at) / RFU OR4N2 (11742367_at) / Fold change /veh OR4N2 (11742367_at) / RFU PRRT2 (11749266_a_at) / Fold change /veh PRRT2 (11749266_a_at) / RFU SNX32 (11753110_a_at) / Fold change /veh SNX32 (11753110_a_at) / RFU CDHR5 (11726645_a_at) / Fold change /veh CDHR5 (11726645_a_at) / RFU RCAN1 (11760418_a_at) / Fold change /veh RCAN1 (11760418_a_at) / RFU FAM167A (11723789_a_at) / Fold change /veh FAM167A (11723789_a_at) / RFU FAM26E (11764081_at) / Fold change /veh FAM26E (11764081_at) / RFU ISYNA1 (11749810_s_at) / Fold change /veh ISYNA1 (11749810_s_at) / RFU ACY1 (11761880_at) / Fold change /veh ACY1 (11761880_at) / RFU 11764098_at / Fold change /veh 11764098_at / RFU SAMD14 (11745864_x_at) / Fold change /veh SAMD14 (11745864_x_at) / RFU NPB (11741838_a_at) / Fold change /veh NPB (11741838_a_at) / RFU TMPRSS6 (11731388_a_at) / Fold change /veh TMPRSS6 (11731388_a_at) / RFU KRTAP10-2 (11738614_at) / Fold change /veh KRTAP10-2 (11738614_at) / RFU ARHGAP8 /// PRR5-ARHGAP8 (11727945_x_at) / Fold change /veh ARHGAP8 /// PRR5-ARHGAP8 (11727945_x_at) / RFU KRTAP5-7 /// NADSYN1 (11734609_at) / Fold change /veh KRTAP5-7 /// NADSYN1 (11734609_at) / RFU RASL12 (11751679_a_at) / Fold change /veh RASL12 (11751679_a_at) / RFU CDKN2B (11736163_a_at) / Fold change /veh CDKN2B (11736163_a_at) / RFU PRF1 (11729649_at) / Fold change /veh PRF1 (11729649_at) / RFU, ZNF638 /// ZNF638-IT1 / Fold change vs veh, ZNF638 /// ZNF638-IT1 / RFU, PANK3 / Fold change vs veh, PANK3 / RFU, SH3YL1 / Fold change vs veh, SH3YL1 / RFU, ZEB2 / Fold change vs veh, ZEB2 / RFU, NRIP1 / Fold change vs veh, NRIP1 / RFU, PTTG1IP / Fold change vs veh, PTTG1IP / RFU, CAPN2 / Fold change vs veh, CAPN2 / RFU, MED14 / Fold change vs veh, MED14 / RFU, SNORA58 / Fold change vs veh, SNORA58 / RFU, C1orf63 / Fold change vs veh, C1orf63 / RFU, LRRFIP1 / Fold change vs veh, LRRFIP1 / RFU, NDUFAF7 / Fold change vs veh, NDUFAF7 / RFU, SLC12A2 / Fold change vs veh, SLC12A2 / RFU, IBTK / Fold change vs veh, IBTK / RFU, ESF1 / Fold change vs veh, ESF1 / Fold change vs veh, TMEM50B / RFU, TAOK1 / Fold change vs veh, TAOK1 / RFU, ACBD3 / Fold change vs veh, ACBD3 / RFU, TMA16 / Fold change vs veh, TMA16 / RFU, RWDD3 / Fold change vs veh, RWDD3 / RFU, BCAT1 / Fold change vs veh, BCAT1 / RFU, EDEM3 / Fold change vs veh, EDEM3 / RFU, TMEM33 / Fold change vs veh, TMEM33 / RFU, WDR75 / Fold change vs veh, WDR75 / RFU, AHCTF1 / Fold change vs veh, AHCTF1 / RFU, TFRC / Fold change vs veh, TFRC / RFU, ZDHHC17 / Fold change vs veh, ZDHHC17 / RFU, NOM1 / Fold change vs veh, NOM1 / RFU, ARL8B / Fold change vs veh, ARL8B / RFU, ZBTB11 / Fold change vs veh, ZBTB11 / RFU, TAMM41 / Fold change vs veh, TAMM41 / RFU, KIAA1704 /// LOC100996395 / Fold change vs veh, KIAA1704 /// LOC100996395 / RFU, ING1 / Fold change vs veh, ING1 / RFU, TRMT61B / Fold change vs veh, TRMT61B / RFU, FUBP3 / Fold change vs veh, FUBP3 / RFU, TP53 / Fold change vs veh, TP53 / RFU, TNKS2 / Fold change vs veh, TNKS2 / RFU, ZFP14 / Fold change vs veh, ZFP14 / RFU, ACTR2 / Fold change vs veh, ACTR2 / RFU, PPP3R1 / Fold change vs veh, PPP3R1 / RFU, PIK3R1 / Fold change vs veh, PIK3R1 / RFU, HNRNPA1 / Fold change vs veh, HNRNPA1 / RFU, RNF170 / Fold change vs veh, RNF170 / RFU, ZNF28 / Fold change vs veh, ZNF28 / RFU, RNGTT / Fold change vs veh, RNGTT / RFU, OGT / Fold change vs veh, OGT / RFU, BRD1 / Fold change vs veh, BRD1 / RFU, MARS / Fold change vs veh, MARS / RFU, ZNF655 / Fold change vs veh, ZNF655 / RFU, FAHD1 / Fold change vs veh, FAHD1 / RFU, BDP1 / Fold change vs veh, BDP1 / RFU, LRRCC1 / Fold change vs veh, LRRCC1 / RFU, ARID1A / Fold change vs veh, ARID1A / RFU, ZNF146 / Fold change vs veh, ZNF146 / RFU, ZNF330 / Fold change vs veh, ZNF330 / RFU, GPN3 / Fold change vs veh, GPN3 / RFU, C9orf123 / Fold change vs veh, C9orf123 / RFU, N4BP2L2 / Fold change vs veh, N4BP2L2 / RFU, ARFIP1 / Fold change vs veh, ARFIP1 / RFU, FAM179B / Fold change vs veh, FAM179B / RFU, BCL10 / Fold change vs veh, BCL10 / RFU, UHRF1BP1L / Fold change vs veh, UHRF1BP1L / RFU, BET1 / Fold change vs veh, BET1 / RFU, CNOT2 / Fold change vs veh, CNOT2 / RFU, ZNF268 / Fold change vs veh, ZNF268 / Fold change vs veh, ZNF507 / RFU, DGCR2 / Fold change vs veh, DGCR2 / RFU, WDSUB1 / Fold change vs veh, WDSUB1 / Fold change vs veh, HSP90B1 /// MIR3652 / RFU, ADSS / Fold change vs veh, ADSS / RFU, GK / Fold change vs veh, GK / RFU, ZNF148 / Fold change vs veh, ZNF148 / RFU, TAF9 / Fold change vs veh, TAF9 / RFU, SLC1A5 / Fold change vs veh, SLC1A5 / RFU, SLMO2 / Fold change vs veh, SLMO2 / RFU, ABCC4 / Fold change vs veh, ABCC4 / RFU, LOC101060439 /// RAP1B / Fold change vs veh, LOC101060439 /// RAP1B / RFU, RFX7 / Fold change vs veh, RFX7 / RFU, GTPBP10 / Fold change vs veh, GTPBP10 / RFU, CNEP1R1 / Fold change vs veh, CNEP1R1 / RFU, BIVM-ERCC5 /// ERCC5 / Fold change vs veh, BIVM-ERCC5 /// ERCC5 / RFU, ILF3 / Fold change vs veh, ILF3 / RFU 11762660_at / Fold change /veh 11762660_at / RFU VCAN (11757783_s_at) / Fold change /veh VCAN (11757783_s_at) / RFU DDX43 (11728927_at) / Fold change /veh DDX43 (11728927_at) / RFU KRT8 (11758188_x_at) / Fold change /veh KRT8 (11758188_x_at) / RFU NKD1 (11759106_at) / Fold change /veh NKD1 (11759106_at) / RFU SRD5A1 (11742802_a_at) / Fold change /veh SRD5A1 (11742802_a_at) / RFU TPSAB1 /// TPSB2 (11721975_s_at) / Fold change /veh TPSAB1 /// TPSB2 (11721975_s_at) / RFU GSTM3 (11746129_a_at) / Fold change /veh GSTM3 (11746129_a_at) / RFU IL23R (11737362_x_at) / Fold change /veh IL23R (11737362_x_at) / RFU TMEM51 (11727254_a_at) / Fold change /veh TMEM51 (11727254_a_at) / RFU PIWIL2 (11732686_x_at) / Fold change /veh PIWIL2 (11732686_x_at) / RFU ORM1 (11744905_x_at) / Fold change /veh ORM1 (11744905_x_at) / RFU CCDC152 (11743942_at) / Fold change /veh CCDC152 (11743942_at) / RFU ECM1 (11717891_a_at) / Fold change /veh ECM1 (11717891_a_at) / RFU IL23R (11748794_a_at) / Fold change /veh IL23R (11748794_a_at) / RFU TNFAIP8L3 (11732012_x_at) / Fold change /veh TNFAIP8L3 (11732012_x_at) / RFU MBOAT4 (11741988_at) / Fold change /veh MBOAT4 (11741988_at) / RFU 11764193_at / Fold change /veh 11764193_at / RFU TMEM53 (11763286_at) / Fold change /veh TMEM53 (11763286_at) / RFU MAGEB2 (11727129_at) / Fold change /veh MAGEB2 (11727129_at) / RFU TMEM200A (11744735_a_at) / Fold change /veh TMEM200A (11744735_a_at) / RFU CCDC152 (11751479_a_at) / Fold change /veh CCDC152 (11751479_a_at) / RFU FAM211A (11726209_a_at) / Fold change /veh FAM211A (11726209_a_at) / RFU RGS16 (11746705_a_at) / Fold change /veh RGS16 (11746705_a_at) / RFU VCAN (11755009_s_at) / Fold change /veh VCAN (11755009_s_at) / RFU RHOB (11743442_s_at) / Fold change /veh RHOB (11743442_s_at) / RFU RGS16 (11720943_a_at) / Fold change /veh RGS16 (11720943_a_at) / RFU RGS16 (11720944_at) / Fold change /veh RGS16 (11720944_at) / RFU, VPS4B / Fold change vs veh, VPS4B / RFU, CREB1 / Fold change vs veh, CREB1 / RFU, DNAJC13 / Fold change vs veh, DNAJC13 / RFU, GNAQ / Fold change vs veh, GNAQ / RFU, CDK5R1 / Fold change vs veh, CDK5R1 / RFU, ZRANB3 / Fold change vs veh, ZRANB3 / RFU, CUL4A / Fold change vs veh, CUL4A / RFU, CCNY / Fold change vs veh, CCNY / RFU, UFL1 / Fold change vs veh, UFL1 / RFU, COG3 / Fold change vs veh, COG3 / RFU, DIAPH2 / Fold change vs veh, DIAPH2 / RFU, SKA2 / Fold change vs veh, SKA2 / RFU, AFF3 / Fold change vs veh, AFF3 / RFU, LMF1 / Fold change vs veh, LMF1 / RFU, IPO11 / Fold change vs veh, IPO11 / RFU, DFFB / Fold change vs veh, DFFB / RFU, FOXP1 / Fold change vs veh, FOXP1 / RFU, CARD8 / Fold change vs veh, CARD8 / RFU, STRN3 / Fold change vs veh, STRN3 / RFU, ADK / Fold change vs veh, ADK / RFU, RASSF2 / Fold change vs veh, RASSF2 / RFU, WIPF1 / Fold change vs veh, WIPF1 / RFU, LARP1B / Fold change vs veh, LARP1B / RFU, RASA1 / Fold change vs veh, RASA1 / RFU, RB1 / Fold change vs veh, RB1 / RFU, PPFIA1 / Fold change vs veh, PPFIA1 / RFU, MAT2A / Fold change vs veh, MAT2A / RFU, CCT5 / Fold change vs veh, CCT5 / RFU, WDR92 / Fold change vs veh, WDR92 / RFU, CUX1 / Fold change vs veh, CUX1 / RFU, TTC7A / Fold change vs veh, TTC7A / RFU, TMEM135 / Fold change vs veh, TMEM135 / RFU, DEPTOR / Fold change vs veh, DEPTOR / RFU, CPM / Fold change vs veh, CPM / RFU, DNAJB6 / Fold change vs veh, DNAJB6 / RFU, CACNA2D3 / Fold change vs veh, CACNA2D3 / RFU, DTX4 / Fold change vs veh, DTX4 / RFU, TFCP2 / Fold change vs veh, TFCP2 / RFU, GMCL1 /// GMCL1P1 / Fold change vs veh, GMCL1 /// GMCL1P1 / RFU, AEBP2 / Fold change vs veh, AEBP2 / RFU, SNHG1 /// SNORD22 /// SNORD25 /// SNORD26 /// SNORD27 /// SNORD28 /// SNORD29 /// SNORD31 / Fold change vs veh, SNHG1 /// SNORD22 /// SNORD25 /// SNORD26 /// SNORD27 /// SNORD28 /// SNORD29 /// SNORD31 / Fold change (Aza/veh), C12orf56 (ProbeSet 11735607_a_at) / Fold change (ACY-1035/veh), C12orf56 (ProbeSet 11735607_a_at) / Fold change (Aza/veh), FGFR1OP (ProbeSet 11751329_s_at) / Fold change (ACY-1035/veh), FGFR1OP (ProbeSet 11751329_s_at) / Fold change (Aza/veh), VPS36 (ProbeSet 11739960_a_at) / Fold change (ACY-1035/veh), VPS36 (ProbeSet 11739960_a_at) / RFU SYPL1 (11715823_x_at) / Fold change /veh SYPL1 (11715823_x_at) / RFU IGFBP7 (11715501_s_at) / Fold change /veh IGFBP7 (11715501_s_at) / RFU REEP3 (11722064_at) / Fold change /veh REEP3 (11722064_at) / RFU IGLL1 (11728026_x_at) / Fold change /veh IGLL1 (11728026_x_at): dose or concentration left out as unconfirmed
Details: ProbeSet 11758779_at; LIST B

Nc1ccc(-c2cccs2)cc1NC(=O)c1ccc2c(c1)cc(C1CC1)n2CCN1CCOCC1 [ACY-1035]
Fold change vs veh, TMEM50B: 0.95
